Tests used:
Format in all cases: in vitro ADME
CYP450 2D6 = molecular target: T1, CYP450 2D6 (Homo sapiens, UniProt P10635); test: Inhibition of cytochrome P450 enzymes in human liver microsomes, 2D6
T1 construct: 0.1 mg/mL human liver microsomes (HLM); from tissue; host or cells: human liver microsomes
Protocol: Inhibition of Cytochrome P450 Enzymes: A cocktail of substrates for cytochrome P450 enzymes (1A2: Phenacetin, 10 µM; 2C9: Diclofenac, 5 µM; 2D6: Dextromethorphan, 5 µM; 3A4:
Midazolam, 2 µM) were mixed for cocktail analysis. For P450 2C19, the substrate stock (Mephenytoin, 40 µM )and substrate mix were prepared separately for discrete analysis. The […]
positive control for pan-P450 inhibition (miconazole) was included alongside each test compound […]
A reaction mixture of 100 mM Kpi, pH 7.4, 0.1 mg/mL human liver microsomes (HLM) and Substrate Mix is prepared and aliquoted into a 96-deepwell block. Test compound and positive control (in duplicate) were then added such that the final concentration of test compound ranged from 0.1 – 30 µM. The plate was vortexed briefly and then pre-incubated at 37 °C while shaking for 15 minutes. The reaction was initiated with the addition of NADPH (1 mM final concentration). The incubation continued for 8 min and the reaction quenched by 2x volume of cold acetonitrile containing internal standard (50 nM carbamazepine). The plate was centrifuged for 10 minutes (4000 rcf, 4°C) and the resulting supernatant diluted 1:1 with water for LC/MS/MS analysis. A 12 point standard curve of substrate metabolites over the range of 0.98 nM to 2000 […]
Samples were analyzed via electrospray ionization (ESI) on an AB Sciex API-4000 (Foster City, CA) triple-quadrupole instrument that was coupled with Shimadzu LC-10AD pumps (Columbia, MD) and a Leap Technologies CTC PAL auto-sampler (Carrboro, NC). Analytes were separated by gradient elution using a Fortis C18 3.0 x 50 mm, 3 µm column (Fortis Technologies Ltd, Cheshire, UK) thermostated at 40°C. HPLC mobile phase A was 0.1% formic acid in water (pH unadjusted), mobile phase B was 0.1% formic acid in acetonitrile (pH unadjusted). The gradient […]
90% B for 0.1 min and returned to 10% B in 0.1 min followed by a re-equilibration (0.9 min). The total run time was 2.5 min and the HPLC flow rate was 0.5 mL/min. The source temperature was set at 500°C and mass spectral analyses were performed using multiple reaction monitoring (MRM), with transitions specific for each compound utilizing a Turbo-Ionspray® source in positive ionization mode (5.0 kV spray voltage).
The IC50 values for each compound were obtained for the individual CYP enzymes by quantitating the inhibition of metabolite formation for each probe substrate. A 0 µM compound condition (or control) was set to 100% enzymatic activity and the effect of increasing test compound concentrations on enzymatic activity could then be calculated from the % of control activity.
Curves were fitted using XLfit 5.2.2 (four-parameter logistic model, equation 201) to determine the concentration that produces half-maximal inhibition (IC50).

[1] = Plasma protein binding, equilibrium dialysis (rat); settings: pH 7.4, rat plasma, read-out: fu plasma (r)
Protocol: page 13: at half log concentrations in DMSO were further diluted in assay buffer. The compounds or DMSO vehicle were added to cells and incubated for 2.5 min and an EC20 concentration of glutamate was added and incubated for 1 min. An ECmax concentration of glutamate was also added to cells that were incubated with DMSO vehicle to accurately calculate the EC20 calcium response. Data were normalized by subtracting the basal florescent peak before EC20 agonist addition from the maximal peak elicited by EC20 agonist and PAMs. Using GraphPad Prism 5.0, the concentration response curves were generated and the potencies of the mGlu1 PAMs were determined. DMPK Methods Plasma protein binding: The protein binding of each compound was determined in plasma via equilibrium dialysis employing RED Plates (ThermoFisher Scientific, Rochester, NY). Plasma was added to the 96 well plate containing test compound and mixed thoroughly for a final concentration of 5 µM. Subsequently, an aliquot of the plasma-compound mixture was transferred to the cis chamber (red) of the RED plate, with an phosphate buffer (25 mM, pH 7.4) in the trans chamber. The RED plate was sealed and incubated for 4 hours at 37°C with shaking. At completion, aliquots from each chamber were diluted 1:1 with either plasma (cis) or buffer (trans) and transferred to a new 96 well plate, at which time ice-cold acetonitrile containing internal standard (50 ng/mL carbamazepine) (2 volumes) was added to extract the matrices. The plate was centrifuged (3000 rcf, 10 min) and supernatants transferred and diluted 1:1 (supernatant: water) into a new 96 well plate, which was then sealed in preparation for LC/MS/MS analysis. Each compound was assayed in triplicate within the same 96-well plate. Fraction unbound was determined using the following equation F = Concbuffer u Conc plasma Intrinsic clearance: Human or rat hepatic microsomes (0.5 mg/mL) and 1 µM test compound were incubated in 100 mM potassium phosphate pH 7.4 buffer with 3 mM MgCl2 at 37°C with constant shaking. After a 5 min preincubation, the reaction was initiated by addition of NADPH (1 mM). At selected time intervals (0, 3, 7, 15, 25, and 45 min), aliquots were taken and subsequently placed into a 96-well plate containing cold acetonitrile with internal standard (50 ng/mL carbamazepine). Plates were then centrifuged at 3000 rcf (4° C) for 10 min, and the supernatant was transferred to a separate 96-well plate and diluted 1:1 with water for LC/MS/MS analysis. The in vitro half-life (T 1/2, min, Eq. 1), intrinsic clearance (CLint, mL/min/kg, Eq. 2) and subsequent predicted hepatic clearance (CLhep, mL/min/kg, Eq. 3) was determined S13

[2] = Unbound fraction in brain (rat); settings: read-out: fu brain (rat)

T1 sequence (P10635 whole entry): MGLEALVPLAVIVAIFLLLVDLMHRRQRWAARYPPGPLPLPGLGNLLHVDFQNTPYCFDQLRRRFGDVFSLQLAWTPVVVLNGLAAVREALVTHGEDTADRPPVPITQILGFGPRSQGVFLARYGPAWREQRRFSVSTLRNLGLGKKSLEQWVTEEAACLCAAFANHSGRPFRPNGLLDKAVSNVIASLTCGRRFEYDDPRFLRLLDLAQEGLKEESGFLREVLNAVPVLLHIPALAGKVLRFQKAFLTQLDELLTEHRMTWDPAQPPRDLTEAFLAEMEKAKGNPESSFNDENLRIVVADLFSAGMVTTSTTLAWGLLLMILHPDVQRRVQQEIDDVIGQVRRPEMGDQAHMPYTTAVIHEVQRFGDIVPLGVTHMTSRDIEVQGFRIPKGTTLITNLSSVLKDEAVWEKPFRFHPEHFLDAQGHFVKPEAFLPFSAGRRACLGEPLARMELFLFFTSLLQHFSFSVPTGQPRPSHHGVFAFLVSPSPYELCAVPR

Compound	IC50 (CYP450 2D6)	fraction unbound at 4 h, 5 µM [1]	fraction unbound [2]
Cn1cc(-c2cc(CNC(=O)c3cc(-c4ccco4)ccc3Cl)n(C)n2)cn1 [compound 4]	> 30 µM	0.04	0.044
Cn1nc(-c2ccnn2C)cc1CNC(=O)c1cc(-n2cccn2)ccc1Cl [compound 5]	> 30 µM	0.095	0.185
Cc1nc2ccccc2cc1CNC(=O)c1cc(-n2cccn2)ccc1Cl [compound 6]	6.9 µM	0.054	0.047
Cc1nc2c(F)cccc2cc1CNC(=O)c1cc(-n2cccn2)ccc1Cl [compound 7]	> 30 µM	0.016	0.04
Cc1nc(C2CC2)ccc1CNC(=O)c1cc(-n2cccn2)ccc1Cl [compound 8]	> 30 µM	0.097	0.062

Reference: PMC11843613, “Further Optimization of the mGlu1 PAM VU6024578/BI02982816: Discovery and Characterization of VU6033685” (ACS Chemical Neuroscience, 2025)
